{"source": "paper PMC3015019", "about": "(Biological psychiatry, 2010)", "key": {"[1]": {"biological_target": "T1, σ2 receptor (Cavia porcellus, UniProt H0V073)", "T1 sequence (H0V073 1-176)": "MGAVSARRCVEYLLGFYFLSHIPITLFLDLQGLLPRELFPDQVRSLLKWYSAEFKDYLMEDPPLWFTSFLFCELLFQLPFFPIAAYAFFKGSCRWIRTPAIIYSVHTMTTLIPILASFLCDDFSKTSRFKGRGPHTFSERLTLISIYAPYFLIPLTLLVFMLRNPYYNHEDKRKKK", "test": "Sigma 2 receptor binding, [3H]DTG displacement in presence of", "set-up": "species or system guinea pig", "conditions": "ratio of σ2 to σ1 affinity values"}, "[2]": {"test_system": "DA levels in dialysates from the NAc shell", "test": "In-vivo microdialysis of extracellular DA in the NAc shell of freely moving rats", "conditions": "rat; for time for DA levels to return to basal levels after injection: cocaine: highest dose"}, "[3]": {"biological_target": "σ1 receptor (Cavia porcellus, UniProt Q60492)", "sequence (Q60492 whole entry)": "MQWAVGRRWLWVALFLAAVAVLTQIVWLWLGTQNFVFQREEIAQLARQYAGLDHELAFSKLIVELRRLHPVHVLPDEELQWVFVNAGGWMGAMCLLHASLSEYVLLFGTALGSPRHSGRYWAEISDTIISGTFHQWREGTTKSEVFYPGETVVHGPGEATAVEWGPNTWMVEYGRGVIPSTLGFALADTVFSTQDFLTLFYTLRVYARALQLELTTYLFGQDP", "test": "Sigma 1 receptor binding, [3H]", "set-up": "species or system guinea pig"}, "[4]": {"conditions": "10–30 mg/kg i.p., administered alone"}}, "note": "Structures can show the parent of a compound that is named as a salt."}
{"smiles": "CN1CCN(CCc2ccc(Cl)c(Cl)c2)CC1", "note": "[BD 1063]", "values": [{"measurement": "σ2/σ1", "setting": "[1]", "result": 70.9}, {"measurement": "later decrease in DA levels, antagonist alone", "setting": "[2]; [4]", "result": "about 80 % of baseline"}, {"measurement": "transient (<30 min) non-significant increase in DA levels, antagonist alone", "setting": "[2]; [4]", "result": "about 30%"}]}
{"smiles": "CN(CCc1ccc(Cl)c(Cl)c1)CCN1CCCC1", "note": "[BD 1008]", "values": [{"measurement": "DA levels at 2 hr after injection, antagonist alone", "setting": "[2]; 10 mg/kg i.p., administered alone", "result": "~75 % of basal control values"}]}
{"smiles": "Cc1ccccc1N=C(N)Nc1ccccc1C", "note": "[DTG]", "values": [{"measurement": "time of maximal effect on DA levels", "setting": "[2]; 3.2 mg/kg i.v.", "result": 20, "unit": "min"}, {"measurement": "time of maximal effect on DA levels", "setting": "[2]; 5.6 mg/kg i.v.", "result": "≤ 10", "unit": "min"}, {"measurement": "acute toxicity", "setting": "[2]; i.v., doses higher than 5.6 mg/kg", "result": "signs of acute toxicity"}, {"measurement": "time for DA levels to return to basal levels after injection", "setting": "[2]; i.v.", "result": "≤ 45", "unit": "min"}]}
{"smiles": "CN(C)CCN(C)CCc1ccc(Cl)c(Cl)c1", "note": "[BD 1047]", "values": [{"measurement": "σ2/σ1", "setting": "[1]", "result": 15.2}]}
{"smiles": "CC(=O)c1ccc2c(c1)oc(=O)n2CCCCN1CCN(c2ccc(F)cc2)CC1", "note": "[SN79]", "values": [{"measurement": "effect on extracellular levels of DA, antagonist alone", "setting": "[2]; 1–3 mg/kg i.p., up to 100 min after administration", "result": "did not significantly modify"}]}
{"smiles": "COC(=O)[C@H]1[C@@H](OC(=O)c2ccccc2)C[C@@H]2CC[C@H]1N2C", "note": "[Cocaine, (−)-cocaine hydrochloride]", "values": [{"measurement": "Ki", "setting": "[3]", "result": 5.19, "unit": "µM"}, {"measurement": "time for DA levels to return to basal levels after injection", "setting": "[2]; i.v.", "result": "≤ 50", "unit": "min"}]}
